Experiment: Rodent Feeding Model: Measurement of Food Intake in Food-Deprived Rats
Type: in vivo, Male Long-Evans rats
Details: 30 mg/kg i.p., N = 8; for Food Consumption (% chg.) 0-2 hrs / Food Consumption (% chg.) 0-6 hrs / Food Consumption (% chg.) 2-6 hrs: vs vehicle, negative = reduction
Procedure: Male Long-Evans rats (180-200 grams) are housed individually and are maintained on a once-a-day feeding schedule (i.e. 10 a.m. until 4 p.m.) for five days following quarantine to allow the animals to acclimate to feeding on powdered chow (#5002 PMI Certified Rodent Meal) during the allotted time. The chow is made available in an open jar, anchored in the cage by a wire, with a metal follower covering the food to minimize spillage. Water is available ad-libitum.
Animals are fasted for 18 hours prior to testing. At the end of the fasting period, animals are administered either compounds of the invention or vehicle. Vehicle and test compounds are administered either orally (5 mL/kg) 60 minutes prior to the experiment, or 30 minutes prior when given subcutaneously (1 mL/kg) or intraperitoneally (1 mL/kg). Compounds of the invention are administered orally as a suspension in aqueous 0.5% methylcellulose-0.4% Tween 80, or intraperitoneally as a solution or suspension in PEG 200; compound concentrations typically range from 1 mg/kg to 100 mg/kg, preferably from 10-30 mg/kg. Food intake is measured at 2, 4, and 6 hours after administration by weighing the special jar containing the food before the experiment and at the specified times. Upon completion of the experiment, all animals are given a one-week washout period before retesting.
Percent reduction of food consumption is calculated subtracting the grams of food consumed by the treated group from the grams of food consumed by the control group divided by the grams of food consumed by the control group, multiplied by 100. [formula] A negative value indicates a reduction in food consumption and a positive value indicates an increase in food consumption.

SMILES	Food Consumption (grams) 0-2 hrs [g]	Food Consumption (% chg.) 0-2 hrs [%]	Food Consumption (grams) 0-6 hrs [g]	Food Consumption (% chg.) 0-6 hrs [%]	Food Consumption (grams) 2-6 hrs [g]	Food Consumption (% chg.) 2-6 hrs [%]
COc1ccc2c(c1)CCC(NC[C@H]1CC[C@H](CNS(=O)(=O)c3ccccc3F)CC1)C2Cc1cccnc1 (relative stereo) [Compound 43]	6.63	-17.1	15.25	-17.6	8.63	-17.8
COc1ccc2c(c1)CC[C@H](NC[C@H]1CC[C@H](CNS(=O)(=O)c3ccc(OC)c(OC)c3)CC1)[C@@H]2Cc1ccccc1 (relative stereo) [Compound 53]	5.75	-33.3	11.88	-40.2	6.13	-45.6
O=S(=O)(NC[C@H]1CC[C@H](CNC2CCc3cc(F)ccc3C2Cc2cccnc2)CC1)c1ccccc1F (relative stereo) [Compound 111]	5.13	-35.9	12.63	-31.7	7.50	-28.6
